In paper PMC6814295 (Insect biochemistry and molecular biology, 2018):

Key:
[1] = biological target: AaPK1 (Aedes aegypti pyruvate kinase 1) (Aedes aegypti, UniProt Q16F38); assay: LDH-coupled NADH oxidation at […] nm, PEP varied; type: biochemical; details: 1 mM effector, 2 mM ADP, 20 mM MgCl2, 50 mM KCl, pH 7.5, 25 °C
[2] = biological target: Aedes aegypti pyruvate kinase 1 (Aedes aegypti); assay: crystal structure

Compound	LDH-coupled NADH oxidation at 340 nm, PEP varied ([1]; allosteric activator)	also measured
O=P(O)(O)OCC1(O)O[C@H](CO)[C@@H](O)[C@@H]1O (stereo partly shown) [F1P, fructose-1-phosphate]	our results indicate that F1P is an allosteric activator	–
O=C(CO)[C@H](O)[C@H](O)COP(=O)(O)O [R5P, ribulose-5-phosphate]	–	LDH-coupled NADH oxidation at 340 nm, PEP varied ([1]; allosteric inhibitor): while R5P is an allosteric inhibitor of AaPK1
C[C@H](N)C(=O)O [alanine]	AaPK1 is regulated by alanine, glutamine, proline, and serine in a classic allosteric fashion	–
NC(=O)CC[C@H](N)C(=O)O [glutamine]	AaPK1 is regulated by alanine, glutamine, proline, and serine in a classic allosteric fashion	–
O=C(O)[C@@H]1CCCN1 [proline]	AaPK1 is regulated by alanine, glutamine, proline, and serine in a classic allosteric fashion	–
N[C@@H](CO)C(=O)O [serine]	AaPK1 is regulated by alanine, glutamine, proline, and serine in a classic allosteric fashion	–
Aedes aegypti pyruvate kinase 1 (enzyme)	–	stoichiometry N [2]: 4
